In the assay the test system is B6C3F1 mice, Lewis lung carcinoma iv, survival T/C. The assay is described as follows: NCI In Vivo Anticancer Drug Screen. Data for tumor model Lewis Lung Carcinoma (intravenous) in B6C3F1 mice. The following applies: endpoint: median survival time, schedule: Q01DX009 (ip), higher = longer survival. In outline: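 T/C ratio derived from survival of compound-treated versus vehicle-treated mice bearing transplantable tumors.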

[1] abbreviates: dose: 12.5 mg/kg/injection, vehicle: saline with Tween-80.
Where [2] appears, read: dose: 25.0 mg/kg/injection, vehicle: saline with Tween-80.
[3] abbreviates: dose: 50.0 mg/kg/injection, vehicle: saline with Tween-80.
[4] abbreviates: dose: 100.0 mg/kg/injection, vehicle: saline with Tween-80.
Where [5] appears, read: dose: 400.0 mg/kg/injection, vehicle: Klucel (hydroxypropylcellulose) (HPC).
The mark [6] stands for this setting: dose: 25.0 mg/kg/injection, vehicle: saline.
The mark [7] stands for this setting: dose: 50.0 mg/kg/injection, vehicle: saline.
Setting [8] is: dose: 100.0 mg/kg/injection, vehicle: saline.
Where [9] appears, read: dose: 200.0 mg/kg/injection, vehicle: saline.
The mark [10] stands for this setting: dose: 400.0 mg/kg/injection, vehicle: saline.
[11] abbreviates: dose: 12.5 mg/kg/injection, vehicle: saline.
The mark [12] stands for this setting: dose: 3.12 mg/kg/injection, vehicle: saline.
The mark [13] stands for this setting: dose: 6.25 mg/kg/injection, vehicle: saline.
Setting [14] is: dose: 200.0 mg/kg/injection, vehicle: saline with Tween-80.

Where “and” joins values, the source holds several entries; their conditions need not be identical. Equal entries are not always repeated. Inconclusive results and toxic doses are left out.

This note sets out measurements from PubChem BioAssay AID276 (DTP/NCI, 2004).

`CCCCCCCCCCCC(=O)NC1CC(O[C@H]2C[C@](O)(C(=O)CO)Cc3c(O)c4c(c(O)c32)C(=O)c2c(OC)cccc2C4=O)OC(C)C1O` (some centres not stated): the T/C is 96 % of control (dose: 6.25 mg/kg/injection, vehicle: distilled water + Tween-80); 100 % of control (dose: 12.5 mg/kg/injection, vehicle: distilled water + Tween-80); 102 % of control (dose: 25.0 mg/kg/injection, vehicle: distilled water + Tween-80); 119 % of control (dose: 50.0 mg/kg/injection, vehicle: distilled water + Tween-80).

As to `COc1ccc2c(ccc3oc([N+](=O)[O-])cc32)c1`, the T/C reads like this: under setting [1], 98 % of control; under setting [2], 110 % of control; under setting [3], 104 % of control; under setting [4], 100 % of control.

Take `C[n+]1cccc(NC(=O)c2ccc(NC(=O)C34CCC(C(=O)Nc5ccc(C(=O)Nc6ccc[n+](C)c6)cc5)(CC3)CC4)cc2)c1`: the T/C (dose: 5.0 mg/kg/injection, vehicle: saline with Tween-80) was 106 % of control and the T/C (dose: 10.0 mg/kg/injection, vehicle: saline with Tween-80) is 122 % of control.

`CN(C)c1ccc2c(SCC(=O)OCC(=O)[C@@]3(O)CC[C@H]4[C@@H]5CCC6=CC(=O)C=C[C@]6(C)[C@H]5C(=O)C[C@@]43C)c3ccc(N(C)C)cc3nc2c1`: the T/C (dose: 200.0 mg/kg/injection, vehicle: Klucel (hydroxypropylcellulose) (HPC)) was 94 % of control; the T/C under setting [5] is 99 % of control; the T/C (dose: 800.0 mg/kg/injection, vehicle: Klucel (hydroxypropylcellulose) (HPC)) was 101 % of control.

As to `CC(=O)Oc1c(C)[nH]ccc1=O`, the T/C under setting [6] is 97 % of control; the T/C under setting [7] is 96 % of control; the T/C under setting [8] was 96 % of control; the T/C under setting [9] is 103 % of control; the T/C under setting [10] was 114 % of control.

As for `Cc1c(O)ccc(=O)n1O`, the T/C (dose: 16.0 mg/kg/injection, vehicle: saline with Tween-80) is 101 % of control; the T/C (dose: 32.0 mg/kg/injection, vehicle: saline with Tween-80) was 99 % of control; the T/C (dose: 64.0 mg/kg/injection, vehicle: saline with Tween-80) is 103 % of control; the T/C (dose: 128.0 mg/kg/injection, vehicle: saline with Tween-80) was 89 % of control.

Take `Cc1nnc2ncccn12`: the T/C was 104 % of control under setting [11]; 110 % of control under setting [6]; 101 % of control under setting [7]; 96 % of control under setting [8]; 103 % of control under setting [10].

As for `NC(CCC(=O)NC(CS)C(=O)NCC(=O)O)C(=O)O` (configuration not stated), the T/C under setting [7] was 100 % of control, the T/C under setting [8] is 101 % of control, the T/C under setting [9] was 95 % of control and the T/C under setting [10] is 103 % of control.

With `Brc1c(NC2=NCCN2)ccc2nccnc12`, the T/C runs as follows: (dose: 1.56 mg/kg/injection, vehicle: saline) 103 % of control; under setting [12], 114 % of control; under setting [13], 100 % of control; under setting [11], 101 % of control; under setting [6], 101 % of control; under setting [7], 112 % of control.

In the case of `COC(=O)[C@@]12OC[C@]34[C@H]([C@@H](O)[C@@H]1O)[C@@]1(C)CC(=O)C(O)=C(C)[C@@H]1C[C@H]3OC(=O)[C@H](OC(=O)/C=C(\C)C(C)C)[C@@H]24`, the T/C was 102 % of control (dose: 0.25 mg/kg/injection, vehicle: saline + alcohol); 104 % of control (dose: 0.5 mg/kg/injection, vehicle: saline + alcohol); 107 % of control (dose: 1.0 mg/kg/injection, vehicle: saline + alcohol).

Take `O=C(Nc1cc(Cl)ccc1C(=O)O)c1cccc(C[n+]2ccccc2)c1`: the T/C by setting is: under setting [1], 107 % of control; under setting [2], 102 % of control; under setting [3], 92 % of control; under setting [4], 95 % of control; under setting [14], 100 % of control and 102 % of control.

In the case of `O=C1N[C@@H]2C(=C[C@H](O)[C@@H](O)[C@H]2O)c2cc3c(c(O)c21)OCO3`, the T/C is, setting by setting: (dose: 0.62 mg/kg/injection, vehicle: saline with Tween-80) 93 % of control; (dose: 0.63 mg/kg/injection, vehicle: saline with Tween-80) 112 % of control; (dose: 1.25 mg/kg/injection, vehicle: saline with Tween-80) 107 % of control and 109 % of control; (dose: 2.5 mg/kg/injection, vehicle: saline with Tween-80) 107 % of control and 117 % of control.

`COc1cc2oc(=O)ccc2cc1[C@@H]1OC(=O)C2(C)O[C@@H]12` (some centres not stated): the T/C was 106 % of control (dose: 0.16 mg/kg/injection, vehicle: water); 94 % of control and 96 % of control (dose: 0.31 mg/kg/injection, vehicle: water); 99 % of control and 112 % of control (dose: 0.62 mg/kg/injection, vehicle: water); 91 % of control and 100 % of control (dose: 1.25 mg/kg/injection, vehicle: water); 95 % of control and 100 % of control (dose: 2.5 mg/kg/injection, vehicle: water); 97 % of control and 98 % of control (dose: 5.0 mg/kg/injection, vehicle: water). Besides, the T/C (dose: 10.0 mg/kg/injection, vehicle: water) is 94 % of control.

Take `CC1(C)OCC2OC=CC(=O)C2O1` (configuration not stated): the T/C is 98 % of control under setting [6]; 98 % of control under setting [7]; 105 % of control under setting [8]; 102 % of control under setting [9]; 104 % of control under setting [10].

As for `CC(=O)Nc1ccc(Nc2ccc(C(=C3C=CC(=[N+](C)CCC#N)C=C3)c3ccc(N(C)CCC#N)cc3)cc2)cc1`, the T/C was 102 % of control (dose: 0.39 mg/kg/injection, vehicle: saline with Tween-80); 102 % of control (dose: 0.78 mg/kg/injection, vehicle: saline with Tween-80); 98 % of control (dose: 1.56 mg/kg/injection, vehicle: saline with Tween-80); 104 % of control (dose: 3.12 mg/kg/injection, vehicle: saline with Tween-80); 97 % of control (dose: 6.25 mg/kg/injection, vehicle: saline with Tween-80); 105 % of control under setting [1].

For the compound `CN(C)CCNc1ccc([N+](=O)[O-])c2sc3ccccc3c(=O)c12`, the T/C is 96 % of control under setting [12], 108 % of control under setting [13], 115 % of control under setting [11] and 119 % of control under setting [6].

Take `C#C[C@]1(O)CC[C@H]2[C@@H]3CCc4cc(O)ccc4[C@H]3CC[C@@]21C`: the T/C reads like this: (dose: 50.0 mg/kg/injection, vehicle: Klucel (hydroxypropylcellulose) (HPC)) 118 % of control and 122 % of control; (dose: 100.0 mg/kg/injection, vehicle: Klucel (hydroxypropylcellulose) (HPC)) 113 % of control and 114 % of control; under setting [5], 107 % of control.

For the compound `O=NN(CCF)C(=O)NCCO`, the T/C is 238 % of control (dose: 5.0 mg/kg/injection, vehicle: saline) and 215 % of control (dose: 10.0 mg/kg/injection, vehicle: saline).

In the case of `CC(=O)OCC1(C)NC(=O)c2ccccc2O1` (configuration not stated), the T/C is 114 % of control under setting [1]; 96 % of control under setting [2]; 100 % of control under setting [3]; 104 % of control under setting [4]; 114 % of control under setting [14]; 100 % of control (dose: 400.0 mg/kg/injection, vehicle: saline with Tween-80).
